Read-outs that look alike come from different tables or passages of the source.
Key:
recombinant RSV complex = recombinant RSV complex (Human respiratory syncytial virus A, UniProt P28887); assay: RSV Polymerase Inhibition Assay; format: biochemical
Experimental: Standard RSV polymerase assays were conducted in the presence of 10 nM recombinant RSV complex in a reaction buffer containing Tris-HCl pH7.5, 6 mM MgCl2, and other additives and substrates including RNA oligonucleotides and radionucleotides. Standard reactions were incubated in 96-well plate format for 2 h at 30° C., in the presence of increasing concentration of inhibitor. The reaction was stopped with 90 μL of 0.1M EDTA, and the reaction product was transferred to a “reading” 96-well plate. After washing of the plate, radiolabeled RNA products were detected according to standard procedures with a Trilux Topcount scintillation counter.

[1] = Cytotoxicity Determination (CCK-8, without addition of virus); format: cell-based; conditions: human, 50% cytotoxicity concentration (CC50)
Experimental: (§1) CPE reduction assays are performed as described by Sidwell and Huffman et al., Appl. Microbiol. (1971) 22(5):797-801 with slight modifications. HEp-2 cells (ATCC #, CCL-23) are seeded at a density of 1,500 cells/30 μl/well into the 384-well cell plate(s) (Corning #3701) one day prior to the assay. Compounds are added into 384-well cell plates by Labcyte POD 810 Plate Assembler system. Each of the test compounds is provided to duplicate wells of a 384-well cell plate at final concentrations starting from 100 μM or 1 μM using 1/3 stepwise dilutions for 9 points. Quick-thaw Respiratory Syncytial Virus (RSV) long strain (ATCC #VR-26) stock in a 37° C. water bath. Place on ice until ready to use. Viruses are diluted to the concentration of 100 TCID50/30 μL with medium and 30 μl diluted RSV are added into related wells of 384-well cell plates. For each plate, sixteen wells are set aside as uninfected, untreated cell controls (CC), and nine wells per test plate receive virus only as a control for virus replication (VC). The final DMSO concentration of all wells is 1%. Place the plates at 37° C., 5% CO2 for 5 days.
In order to determine the compound cytotoxicity, in parallel, each of the compounds is applied to duplicate wells in a 384-well cell plate at serial final concentrations starting from 100 μM using 1/2 stepwise dilutions for 7 points without addition of virus. Incubate the cells at 37° C., 5% CO2 for 5 days. Add 6 μL CCK-8 into each well and incubate in a CO2 incubator at 37° C. for 3-4 hours.

[2] = system: Respiratory Syncytial Virus (RSV) long strain; assay: microbe, parasite or virus in culture; format: cell-based; conditions: human respiratory syncytial virus, Tables A and B list compounds by EC50 band
Experimental: as §1
After 5 days incubation, observe the CPE of cells in all wells. […] Six μl of cell counting kit-8 reagent (CCK-8, Dojindo Molecular Technologies Inc., CK04-20) are added to each well, which allows colorimetric assays to determine the number of viable cells through the dehydrogenase activity detection. After 3-4 hour incubation, the absorbance of each well is measured with a spectrophotometric plate reader at 450 nm wavelength, using a 630 nm filter as background according to manufacturer's instruction.

[3] = HEp-2, 120 h, read-out: 50% effective concentration (EC50), HEp-2 cells infected with RSV long strain, 5 days, CCK-8 readout

recombinant RSV complex, sequence (P28887 whole entry): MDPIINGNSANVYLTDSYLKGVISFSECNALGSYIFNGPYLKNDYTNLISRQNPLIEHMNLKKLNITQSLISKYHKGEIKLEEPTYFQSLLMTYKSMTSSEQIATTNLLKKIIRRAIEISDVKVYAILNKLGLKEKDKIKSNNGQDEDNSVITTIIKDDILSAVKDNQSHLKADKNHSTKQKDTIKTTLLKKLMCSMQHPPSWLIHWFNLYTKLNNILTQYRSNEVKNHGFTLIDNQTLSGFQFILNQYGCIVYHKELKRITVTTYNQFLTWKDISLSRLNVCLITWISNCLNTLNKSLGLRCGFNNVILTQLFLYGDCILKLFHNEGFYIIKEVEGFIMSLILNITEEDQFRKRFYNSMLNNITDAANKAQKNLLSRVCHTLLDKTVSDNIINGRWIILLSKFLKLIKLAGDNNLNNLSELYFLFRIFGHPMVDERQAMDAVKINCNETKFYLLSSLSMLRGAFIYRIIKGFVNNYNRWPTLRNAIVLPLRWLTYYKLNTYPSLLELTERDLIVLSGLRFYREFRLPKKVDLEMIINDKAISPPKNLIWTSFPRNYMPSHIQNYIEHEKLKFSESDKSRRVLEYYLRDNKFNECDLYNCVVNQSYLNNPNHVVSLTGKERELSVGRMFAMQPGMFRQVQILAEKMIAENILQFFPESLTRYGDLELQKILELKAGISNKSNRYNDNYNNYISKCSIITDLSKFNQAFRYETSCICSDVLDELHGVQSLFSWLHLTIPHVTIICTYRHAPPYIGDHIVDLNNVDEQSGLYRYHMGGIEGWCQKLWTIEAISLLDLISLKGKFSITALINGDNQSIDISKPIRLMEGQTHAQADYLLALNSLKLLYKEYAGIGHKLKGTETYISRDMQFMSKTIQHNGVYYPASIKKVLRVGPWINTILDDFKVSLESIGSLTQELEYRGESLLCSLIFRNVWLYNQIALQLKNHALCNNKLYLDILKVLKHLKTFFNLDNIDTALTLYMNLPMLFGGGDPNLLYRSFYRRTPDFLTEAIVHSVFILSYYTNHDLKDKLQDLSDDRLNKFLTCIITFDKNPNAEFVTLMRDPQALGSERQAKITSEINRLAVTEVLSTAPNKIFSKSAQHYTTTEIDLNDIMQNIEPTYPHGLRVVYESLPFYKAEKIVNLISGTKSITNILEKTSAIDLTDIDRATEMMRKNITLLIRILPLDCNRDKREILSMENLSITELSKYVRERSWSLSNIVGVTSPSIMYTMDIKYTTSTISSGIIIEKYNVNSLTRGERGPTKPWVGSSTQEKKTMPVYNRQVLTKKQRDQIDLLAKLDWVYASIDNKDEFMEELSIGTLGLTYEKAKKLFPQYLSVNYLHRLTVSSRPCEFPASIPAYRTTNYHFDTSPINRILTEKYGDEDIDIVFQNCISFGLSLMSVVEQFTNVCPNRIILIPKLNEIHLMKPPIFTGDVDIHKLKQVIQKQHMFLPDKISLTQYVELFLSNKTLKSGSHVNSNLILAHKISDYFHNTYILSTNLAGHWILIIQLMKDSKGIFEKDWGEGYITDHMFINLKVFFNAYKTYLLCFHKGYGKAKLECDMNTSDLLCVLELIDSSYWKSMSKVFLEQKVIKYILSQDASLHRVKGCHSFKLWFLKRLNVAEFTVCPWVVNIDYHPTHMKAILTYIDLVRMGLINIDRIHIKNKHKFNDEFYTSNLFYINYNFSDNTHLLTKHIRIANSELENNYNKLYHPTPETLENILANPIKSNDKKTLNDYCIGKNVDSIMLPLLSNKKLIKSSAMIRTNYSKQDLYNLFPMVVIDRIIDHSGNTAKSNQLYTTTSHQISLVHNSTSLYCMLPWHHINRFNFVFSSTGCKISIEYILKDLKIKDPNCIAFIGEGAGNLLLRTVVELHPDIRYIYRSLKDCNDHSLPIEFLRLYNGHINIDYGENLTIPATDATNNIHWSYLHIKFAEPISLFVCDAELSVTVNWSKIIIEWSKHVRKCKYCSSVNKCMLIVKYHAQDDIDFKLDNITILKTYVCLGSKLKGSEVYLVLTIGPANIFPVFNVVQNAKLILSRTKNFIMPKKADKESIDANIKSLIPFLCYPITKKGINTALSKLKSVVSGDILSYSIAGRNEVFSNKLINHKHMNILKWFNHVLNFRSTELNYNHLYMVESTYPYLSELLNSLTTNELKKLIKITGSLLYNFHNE
recombinant RSV complex, sequence (P03421 whole entry, further chain): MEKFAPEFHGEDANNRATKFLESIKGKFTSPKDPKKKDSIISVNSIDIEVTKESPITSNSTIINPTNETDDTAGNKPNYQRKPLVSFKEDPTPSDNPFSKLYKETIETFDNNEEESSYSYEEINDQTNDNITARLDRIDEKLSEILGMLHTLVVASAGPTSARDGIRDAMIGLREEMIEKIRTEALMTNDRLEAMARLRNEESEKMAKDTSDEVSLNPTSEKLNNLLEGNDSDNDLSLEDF

| SMILES | IC50 (recombinant RSV complex) [µM] | CC50 at 5 days [1] [µM] | other results |
| --- | --- | --- | --- |
| COc1cc(C(=O)NCC(O)(c2ccc(OC)c(-c3ccc(F)c(Cl)c3)n2)C(F)(F)F)ccc1OC1CC1 (single isomer, unassigned) [Compound 247] | < 10 | > 100 |  |
| COc1cc(-c2csc3c(F)cccc23)nc(C(O)CNC(=O)c2cc(OC)c(OC)cc2O)c1 (stereo not shown) [Compound 110] |  | 10 to 100 |  |
| COc1cc(C(=O)NCC(C)(O)c2nc(-c3ccc(F)c(Cl)c3)c(C)n2C)ccc1OCCF (stereo not shown) [Compound 144] | < 100 |  |  |
| COc1cc(C(=O)NCC(C)(O)c2ccc(OC)c(-c3ccc(F)c(Cl)c3)n2)ccc1-c1cccnc1 (stereo not shown) [Compound 146] | < 10 |  |  |
| COc1cc(C(=O)NCC(C)(O)c2ccc(OC)c(-c3ccc(F)c(Cl)c3)n2)ccc1N1CCCC1=O (stereo not shown) [Compound 151] | < 10 |  |  |
| COc1cc(C(=O)NCC(O)c2ccc(OC)c(-c3ccc(F)c(Cl)c3)n2)ccc1OC(F)F (stereo not shown) [Compound 153] | < 10 |  |  |
| CCOc1ccc(C(=O)NCC(O)c2ccc(OC)c(-c3ccc(F)c(Cl)c3)n2)cc1OC (stereo not shown) [Compound 154] | < 10 |  |  |
| COc1cc(C(=O)NCC2(c3ccc(OC)c(-c4ccc(F)c(Cl)c4)n3)CNC(=O)O2)ccc1OCCO (stereo not shown) [Compound 180] | < 100 | > 100 |  |
| COc1cc(C(=O)NCC(O)(CN(CCN)CC(=O)O)c2ccc(OC)c(-c3ccc(F)c(Cl)c3)n2)ccc1OCCO (stereo not shown) [Compound 183] | < 1 | > 100 |  |
| COc1cc(C(=O)NCC(O)(CN2CCCCC2)c2ccc(OC)c(-c3ccc(F)c(Cl)c3)n2)ccc1OCCO (stereo not shown) [Compound 188] | < 10 |  |  |
| COc1cc(C(=O)NCC(O)(c2cc3c(c(-c4ccc(F)c(Cl)c4)n2)OCC3(C)C)C(F)(F)F)ccc1OC1CCNC1=O (stereo not shown) [Compound 203] | < 10 |  |  |
| COc1cc(C(=O)NCC(O)(Cn2ccnc2)c2cc3c(c(-c4ccc(F)c(Cl)c4)n2)OCC3(C)C)ccc1OCCO (stereo not shown) [Compound 225] | < 1 |  |  |
| COc1ccc(C(O)(CNC(=O)c2ccc3ncccc3c2OC)C(F)(F)F)nc1-c1ccc(F)c(Cl)c1 (stereo not shown) [Compound 269] |  | 10 to 100 |  |
| CC(C)(N)c1cc(-c2ccc(F)c(Cl)c2)nc(C(O)(CNC(=O)c2ccc3c(c2)OCO3)C(F)(F)F)c1 (stereo not shown) [Compound 274] | < 1 |  | EC50 [2, 3]: < 1 µM |
| CC(C)(N)c1cc(-c2ccc(F)c(Cl)c2)nc(C(O)(CNC(=O)c2cnc(Cl)s2)C(F)(F)F)c1 (stereo not shown) [Compound 276] | < 1 |  | EC50 [2, 3]: 1 to 50 µM |
| CC(C)(N)c1cc(-c2ccc(F)c(Cl)c2)nc(C(O)(CNC(=O)c2csc(Cl)n2)C(F)(F)F)c1 (stereo not shown) [Compound 280] | < 1 |  | EC50 ([2]; 120 h, read-out: 50% effective concentration (EC50), HEp-2 cells infected with RSV long strain, 5 days, CCK-8 readout): 1 to 50 µM |
| COc1cc(C(=O)NCC(O)(c2cc(CNC(C)=O)cc(-c3ccc(F)cc3)n2)C(F)(F)F)ccc1OC1CC1 (stereo not shown) [Compound 329] | < 1 |  |  |
| COc1cc(C(=O)NCC(O)(c2ccc(OC)c(-c3ccc(F)c(Cl)c3)n2)C(F)(F)F)ccc1OC1CCN(C)C1=O (stereo not shown) [Compound 350] | < 10 |  |  |
| COc1cc(C(=O)NCC(O)(c2ccc(OC)c(-c3ccc(F)c(Cl)c3)n2)C2CC2)ccc1OCc1ncnn1C (stereo not shown) [Compound 352] | < 10 |  |  |
| COc1cc(C(=O)NCC(C)(O)c2ccc(OC)c(-c3ccc(F)c(Cl)c3)n2)ccc1OCC#N (stereo not shown) [Compound 367] | < 1 |  |  |
| COc1cc(C(=O)NCC(C)(O)c2nc(-c3ccc(F)c(Cl)c3)ccc2F)ccc1OCC(N)=O (stereo not shown) [Compound 377] | < 10 |  |  |
| COc1cc(C(=O)NCC(C)(O)c2ccc(OC)c(-c3ccc(F)c(Cl)c3)n2)ccc1OCCN (stereo not shown) [Compound 382] | < 100 |  |  |
| COc1cc(C(=O)NCC(O)(c2cc(C(C)(C)NC(=O)OCc3ccccc3)cc(-c3ccc(F)c(Cl)c3)n2)C(F)(F)F)ccc1OC1CC1 (stereo not shown) [Compound 399] | < 1 |  |  |
| CNC(=O)COc1ccc(C(=O)NCC(O)(c2ccc(OC)c(-c3ccc(F)c(Cl)c3)n2)C(F)(F)F)cc1OC (stereo not shown) [Compound 402] | < 1 |  |  |
| COc1cc(C(=O)NCC(O)(c2ccc(OC)c(C3COc4c(F)cccc43)n2)C2CC2)ccc1OCCO (stereo not shown) [Compound 427] | < 100 | > 100 |  |

| SMILES | IC50 (recombinant RSV complex) [µM] | CC50 at 5 days [1] [µM] | other results |
| --- | --- | --- | --- |
| COc1cc(C(=O)NCC(C)(O)c2cccc(-c3ccc(F)c(Cl)c3)c2)ccc1OCCO (stereo not shown) [Compound 439] | < 100 | > 100 |  |
| COc1cc(C(=O)NCC(C)(O)c2csc(-c3ccc(F)c(Cl)c3)n2)ccc1OCCO (stereo not shown) [Compound 441] | < 100 | > 100 |  |
| COc1cc(C(=O)NCC(O)(c2ccc(OC)c(-c3cnc(Cl)s3)n2)C(F)(F)F)ccc1OCCO (stereo not shown) [Compound 468] |  | 10 to 100 |  |
| CC(C)(N)c1cc(-c2ccc(F)c(Cl)c2)nc(C(O)(CNC(=O)c2coc(Cl)n2)C(F)(F)F)c1 (stereo not shown) [Compound 478] | < 10 |  | EC50 [2, 3]: 1 to 50 µM |
| COc1cc(C(=O)NCC(O)(c2ccc(OCCN(C)C)c(-c3ccc(F)cc3)n2)C(F)(F)F)ccc1OC1CC1 (stereo not shown) [Compound 480] | < 10 |  |  |
| CC1(N)COc2c1cc(C(O)(CNC(=O)c1ccc(OC3CC3)c(CO)c1)C(F)(F)F)nc2-c1ccc(F)cc1 (stereo not shown) [Compound 481] | < 1 |  |  |
| COc1cc(C(=O)NCC(O)(c2cc(CCN)cc(-c3ccc(F)c(Cl)c3)n2)C(F)(F)F)ccc1OC1CC1 (stereo not shown) [Compound 522] | < 1 |  |  |
| COc1cc(C(=O)NCC(O)(c2cc(C(C)(C)N)cc(-c3ccc(F)cc3)n2)C(F)(F)F)ccc1OCC(F)(F)F (stereo not shown) [Compound 573] | < 1 |  |  |
| COc1cc(C(=O)NCC(O)(c2cc(CCCN)cc(-c3ccc(F)c(Cl)c3)n2)C(F)(F)F)ccc1OC1CC1 (stereo not shown) [Compound 591] | < 1 |  | EC50 [2, 3]: < 1 µM |
| COc1cc(C(=O)NC[C@](O)(c2cc3c(c(-c4ccc(C#N)cc4)n2)OC[C@@]3(C)N)C(F)(F)F)ccc1OCCO [Compound 604c] | < 10 | 10 to 100 |  |
| CC(C)(N)c1cc(-c2ccc(F)cc2)nc(C(O)(CNC(=O)c2cnc[nH]2)C(F)(F)F)c1 (stereo not shown) [Compound 613] | < 10 | > 100 |  |
| COc1cc(C(=O)NCC(O)(c2cc(C(C)(C)N)cc(-c3ccc(F)c(Cl)c3)n2)C(F)(F)F)ccc1OCc1nnn[nH]1 (stereo not shown) [Compound 616] | < 10 | > 100 |  |
| CCOC(=O)COc1ccc(C(=O)NCC(O)(c2cc(C(C)(C)N)cc(-c3ccc(F)c(Cl)c3)n2)C(F)(F)F)cc1OC (stereo not shown) [Compound 617] | < 1 | 10 to 100 |  |
| COc1cc(C(=O)NCC(O)(c2cc(C(C)(C)N)cc(-c3ccc(F)c(Cl)c3)n2)C(F)(F)F)ccc1OCC(=O)NS(C)(=O)=O (stereo not shown) [Compound 618] | < 1 |  |  |
| COc1cc(C(=O)NCC(O)(c2cc3c(c(-c4ccc(F)cc4)n2)OCC3(C)N)C(F)(F)F)ccc1OCS(N)(=O)=O (stereo not shown) [Compound 648] | < 1 |  |  |
| COc1cc(C(=O)NCC(O)(c2cc3c(c(-c4ccc(F)cc4)n2)OCC32CCCN2)C(F)(F)F)ccc1OCCO (stereo not shown) [Compound 652] | < 1 |  |  |
| COc1cc(C(=O)NCC(O)(c2cc(C(C)(C)N)cc(-c3ccc(C(F)(F)F)cc3)n2)C(F)(F)F)ccc1OCCO (stereo not shown) [Compound 658] | < 1 |  |  |
| COc1ccc(-c2cc(C(C)(C)N)cc(C(O)(CNC(=O)c3ccc(OCCO)c(OC)c3)C(F)(F)F)n2)cn1 (stereo not shown) [Compound 660] | < 10 |  |  |
| COc1cc(C(=O)NCC(O)(c2cc3c(c(-c4ccc(Cl)nc4)n2)OCC3(C)N)C(F)(F)F)ccc1OC1CC1 (stereo not shown) [Compound 668] | < 1 |  |  |
| COc1cc(C(=O)NCC(O)(c2cc(C(C)(N)C(F)F)cc(-c3ccc(F)cc3)n2)C(F)(F)F)ccc1OCCO (stereo not shown) [Compound 669] | < 1 |  |  |
| COc1cc(C(=O)NCC(O)(c2cc3c(c(-c4ccnc(C)c4)n2)OCC3(C)N)C(F)(F)F)ccc1OCCO (stereo not shown) [Compound 670] |  | > 100 |  |
| COc1cc(C(=O)NCC(O)(c2cc3c(c(-c4ccc(C)nc4)n2)OCC3(C)N)C(F)(F)F)ccc1OCCO (stereo not shown) [Compound 671] |  | > 100 |  |
| COc1cc(C(=O)NCC(O)(c2cc3c(c(-c4ccc(C(N)=O)cc4)n2)OCC3(C)N)C(F)(F)F)ccc1OCCO (stereo not shown) [Compound 674] |  | > 100 |  |
| COc1cc(C(=O)NCC(O)(c2cc(C(C)(N)CF)cc(-c3ccc(F)cc3)n2)C(F)(F)F)ccc1OCCO (stereo not shown) [Compound 676] | < 1 |  |  |

— patent publication US11021444B2, “Antiviral compounds” (priority 2013, dated 2021)
